The values that follow come from US8236792B2, “Substituted pyrrolidine amides as modulators of the histamine H3 receptor” (Janssen Pharmaceutica NV, priority 2008, dated 2012).

Molecules are shown by their SMILES. Like-named read-outs stand apart in the source and are kept apart here.

The target in the test is human H3 receptor (Homo sapiens, UniProt Q9Y5N1). As to the kind of experiment: H3 Receptor Binding (Human) Method 2, [125I]-iodoproxyfan competitive radioligand binding. Further details: expressed in transfected cells.
The mark [1] stands for this setting: Method 2, SK-N-MC cell membranes, [125I]-iodoproxyfan 1 nM, apparent Ki, free base or hydrochloride salt, average of results, read-out: Human H3 Ki.

Sequence of human H3 receptor (Q9Y5N1 whole entry): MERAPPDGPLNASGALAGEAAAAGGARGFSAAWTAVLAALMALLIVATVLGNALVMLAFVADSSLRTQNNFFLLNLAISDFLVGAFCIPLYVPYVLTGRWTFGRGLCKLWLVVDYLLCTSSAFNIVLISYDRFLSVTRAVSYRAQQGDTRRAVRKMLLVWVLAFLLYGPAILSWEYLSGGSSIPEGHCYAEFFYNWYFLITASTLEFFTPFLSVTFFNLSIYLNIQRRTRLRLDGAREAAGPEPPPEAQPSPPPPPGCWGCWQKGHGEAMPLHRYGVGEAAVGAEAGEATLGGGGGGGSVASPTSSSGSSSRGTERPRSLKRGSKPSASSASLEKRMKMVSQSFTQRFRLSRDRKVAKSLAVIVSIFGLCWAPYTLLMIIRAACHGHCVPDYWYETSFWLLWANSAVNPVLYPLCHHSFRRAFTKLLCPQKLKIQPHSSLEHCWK
Protocol: SK-N-MC cells expressing the human H3 receptor were grown to confluence and tissue culture plates, washed with phosphate-buffered saline, and scraped into 50 mL tubes. After centrifugation, the supernatant was aspirated, and the pellets frozen and stored at −80° C. […] The homogenate was centrifuged at 25000×g for 25 min. […] Reactions were stopped by filtration through GF/B filter plates pre-soaked in 0.3% polyethylenimine and subsequently washed with Tris 50 mM, 5 mM EDTA buffer. Plates were dried for 1 h in a 55° C. oven. Scintillation fluid was added and the radioactivity was counted in a Packard TopCount. Non-specific binding to the H3 receptor was defined by radioactivity that was bound in the presence of 100 μM histamine.
Compounds were tested in their free base or hydrochloride salt forms.

For the compound `CC(C)(C)OC(=O)N1C[C@@H](Oc2ccsc2)C[C@@H]1C(=O)N1CCCN(C2CCC2)CC1` [Example 54, (2R,4S)-2-(4-Cyclobutyl-[1,4]diazepane-1-carbonyl)-4-(thiophen-3-yloxy)-pyrrolidine-1-carboxylic acid tert-butyl ester], for the setting “read-out: Human H3 Ki”, the Ki came to 0.011 µM.
In the case of `CC(C)(C)OC(=O)N1C[C@H](Oc2cccc(F)c2)C[C@@H]1C(=O)N1CCCN(C2CCC2)CC1` [Example 55, (2R,4R)-2-(4-Cyclobutyl-[1,4]diazepane-1-carbonyl)-4-(3-fluoro-phenoxy)-pyrrolidine-1-carboxylic acid tert-butyl ester], the Ki (read-out: Human H3 Ki) is 0.057 µM.
On the same count and under the same terms, the same measure for `CC(C)(C)OC(=O)N1C[C@H](Oc2ccc(F)cc2)C[C@@H]1C(=O)N1CCCN(C2CCC2)CC1` [Example 56, (2R,4R)-2-(4-Cyclobutyl-[1,4]diazepane-1-carbonyl)-4-(4-fluoro-phenoxy)-pyrrolidine-1-carboxylic acid tert-butyl ester]: 0.049 µM; for `CC(C)(C)OC(=O)N1C[C@H](Oc2ccc(Cl)cc2)C[C@@H]1C(=O)N1CCCN(C2CCC2)CC1` [Example 57, (2R,4R)-4-(4-Chloro-phenoxy)-2-(4-cyclobutyl-[1,4]diazepane-1-carbonyl)-pyrrolidine-1-carboxylic acid tert-butyl ester]: 0.093 µM.
As for `CC(C)(C)OC(=O)N1C[C@H](Oc2ccccc2)C[C@@H]1C(=O)N1CCCN(C2CCC2)CC1` [Example 58, (2R,4R)-2-(4-Cyclobutyl-[1,4]diazepane-1-carbonyl)-4-phenoxy-pyrrolidine-1-carboxylic acid tert-butyl ester], under “read-out: Human H3 Ki”, the Ki amounted to 0.211 µM.
Regarding `CC(C)(C)OC(=O)N1C[C@H](Oc2ccc(C#N)cc2)C[C@@H]1C(=O)N1CCCN(C2CCC2)CC1` [Example 60, (2R,4R)-4-(4-Cyano-phenoxy)-2-(4-cyclobutyl-[1,4]diazepane-1-carbonyl)-pyrrolidine-1-carboxylic acid tert-butyl ester], under “read-out: Human H3 Ki”, the Ki was determined as 0.16 µM.
Still for that read-out and setting: the same measure for `CC(C)(C)OC(=O)N1C[C@@H](Sc2ccc(F)cc2)C[C@@H]1C(=O)N1CCCN(C2CCC2)CC1` [Example 61, (2R,4S)-2-(4-Cyclobutyl-[1,4]diazepane-1-carbonyl)-4-(4-fluoro-phenylsulfanyl)-pyrrolidine-1-carboxylic acid tert-butyl ester]: 0.017 µM; for `Cc1cccc(O[C@@H]2CN[C@@H](C(=O)N3CCCN(C4CCC4)CC3)C2)c1` [Example 74, (2R,4S)-4-(4-m-Tolyloxy)-2-(4-cyclobutyl-[1,4]diazepane-1-carbonyl)-pyrrolidine]: 0.005 µM; for `O=C([C@H]1C[C@H](Oc2ccc(C(F)(F)F)cc2)CN1)N1CCCN(C2CCC2)CC1` [Example 75, (2R,4S)-4-(4-Trifluoromethyl-phenoxy)-2-(4-cyclobutyl-[1,4]diazepane-1-carbonyl)-pyrrolidine]: 0.004 µM.
Regarding `Cc1ccc(O[C@@H]2CN[C@@H](C(=O)N3CCCN(C4CCC4)CC3)C2)cc1` [Example 76, (2R,4S)-4-(4-p-Tolyloxy)-2-(4-cyclobutyl-[1,4]diazepane-1-carbonyl)-pyrrolidine], for the setting “read-out: Human H3 Ki”, the Ki was 0.005 µM.
Consider `Cc1ccccc1O[C@@H]1CN[C@@H](C(=O)N2CCCN(C3CCC3)CC2)C1` [Example 77, (2R,4S)-4-(4-o-Tolyloxy)-2-(4-cyclobutyl-[1,4]diazepane-1-carbonyl)-pyrrolidine], for which the Ki (read-out: Human H3 Ki) is 0.003 µM.
As to `O=C([C@H]1C[C@H](Oc2ccc(F)cc2)CN1)N1CCCN(C2CC2)CC1` [Example 78, (2R,4S)-2-(4-Cyclopropyl-[1,4]diazepane-1-carbonyl)-4-(4-fluoro-phenoxy)-pyrrolidine], the Ki (read-out: Human H3 Ki) stood at 0.02 µM.
Same read-out and setting: the same measure for `N#Cc1ccc(O[C@@H]2CN[C@@H](C(=O)N3CCCN(C4CC4)CC3)C2)cc1` [Example 79, (2R,4S)-4-(4-Cyano-phenoxy)-2-(4-cyclopropyl-[1,4]diazepane-1-carbonyl)-pyrrolidine]: 0.012 µM; for `O=C([C@H]1C[C@H](Oc2ccc(F)cc2)CN1)N1CCN(C2CCCC2)CC1` [Example 80, (2R,4S)-2-(4-Cyclopentyl-piperazine-1-carbonyl)-4-(4-fluoro-phenoxy)-pyrrolidine]: 0.04 µM.
Same read-out and setting: the same measure for `N#Cc1ccc(O[C@@H]2CN[C@@H](C(=O)N3CCN(C4CCCC4)CC3)C2)cc1` [Example 81, (2R,4S)-4-(4-Cyano-phenoxy)-2-(4-cyclopentyl-piperazine-1-carbonyl)-pyrrolidine]: 0.023 µM; for `CN(C)[C@H]1CCN(C(=O)[C@H]2C[C@H](Oc3cccc(F)c3)CN2)C1` [Example 85]: 1.3 µM.
`O=C([C@H]1C[C@H](Oc2ccccn2)CN1)N1CCCN(C2CCC2)CC1` [Example 98, (2R,4S)-2-(4-Cyclobutyl-[1,4]diazepane-1-carbonyl)-4-(pyridin-2-yloxy)-pyrrolidine]: the Ki was found to be 0.005 µM.
Take `Cc1cnc(F)cc1O[C@@H]1CN[C@@H](C(=O)N2CCCN(C3CCC3)CC2)C1` [Example 99, (2R,4S)-2-(4-Cyclobutyl-[1,4]diazepane-1-carbonyl)-4-(2-fluoro-5-methyl-pyridin-4-yloxy)-pyrrolidine]: the Ki (read-out: Human H3 Ki) worked out at 0.002 µM.
For `Cc1cnc(O[C@@H]2CN[C@@H](C(=O)N3CCCN(C4CCC4)CC3)C2)cc1I` [Example 100, (2R,4S)-2-(4-Cyclobutyl-[1,4]diazepane-1-carbonyl)-4-(4-iodo-5-methyl-pyridin-2-yloxy)-pyrrolidine], for the setting “read-out: Human H3 Ki”, the Ki was determined as 0.002 µM.
Still for that read-out and setting: as for `O=C([C@H]1C[C@H](Oc2cccnc2)CN1)N1CCCN(C2CCC2)CC1` [Example 101, (2R,4S)-2-(4-Cyclobutyl-[1,4]diazepane-1-carbonyl)-4-(Pyridin-3-yloxy)-pyrrolidine], the figure is 0.003 µM; as for `CC(C)N1C[C@@H](Oc2ccc(F)cc2)C[C@H]1C(=O)N1CCCN(C2CCC2)CC1` [Example 108, (2S,4S)-(4-Cyclobutyl-[1,4]diazepan-1-yl)-[4-(4-fluoro-phenoxy)-1-isopropyl-pyrrolidin-2-yl]-methanone], 0.594 µM.
`CCN1C[C@@H](Oc2ccc(F)cc2)C[C@H]1C(=O)N1CCCN(C2CCC2)CC1` [Example 109, (2S,4S)-(4-Cyclobutyl-[1,4]diazepan-1-yl)-[1-ethyl-4-(4-fluoro-phenoxy)-pyrrolidin-2-yl]-methanone]: under “read-out: Human H3 Ki”, the Ki is 0.055 µM.
Same read-out and setting: as for `O=C([C@H]1C[C@H](Oc2ccc(F)cc2)CN1C1CCC1)N1CCCN(C2CCC2)CC1` [Example 111, (2R,4S)-1-Cyclobutyl-2-(4-cyclobutyl-[1,4]diazepane-1-carbonyl)-4-(4-fluoro-phenoxy)-pyrrolidine], the figure is 0.017 µM.
Regarding `CC(C)N1C[C@@H](Oc2ccc(F)cc2)C[C@@H]1C(=O)N1CCCN(C2CCC2)CC1` [Example 112, (2R,4S)-1-Isopropyl-1-cyclobutyl-2-(4-cyclobutyl-[1,4]diazepane-1-carbonyl)-4-(4-fluoro-phenoxy)-pyrrolidine], under setting [1], the Ki came to 0.012 µM.
On to `O=C([C@H]1C[C@H](Oc2ccc(F)cc2)CN1CC1CC1)N1CCCN(C2CCC2)CC1` [Example 113, (2R,4S)-1-Cyclopropylmethyl-2-(4-cyclobutyl-[1,4]diazepane-1-carbonyl)-4-(4-fluoro-phenoxy)-pyrrolidine], for which the Ki (read-out: Human H3 Ki) was found to be 0.007 µM.
Regarding `CC(=O)N1C[C@@H](Oc2cccc(F)c2)C[C@H]1C(=O)N1CCCN(C2CCC2)CC1` [Example 115, (2S,4S)-1-[2-(4-Cyclobutyl-[1,4]diazepane-1-carbonyl)-4-(3-fluoro-phenoxy)-pyrrolidin-1-yl]-ethanone], the Ki was determined as 0.021 µM.
As for `CC(C)C(=O)N1C[C@@H](Oc2cccc(F)c2)C[C@@H]1C(=O)N1CCCN(C2CCC2)CC1` [Example 123, (2R,4S)-1-[2-(4-Cyclobutyl-[1,4]diazepane-1-carbonyl)-4-(3-fluoro-phenoxy)-pyrrolidin-1-yl]-2-methyl-propan-1-one], where the note is “read-out: Human H3 Ki”, the Ki was 0.018 µM.
For the compound `CCC(=O)N1C[C@@H](Oc2cccc(F)c2)C[C@@H]1C(=O)N1CCCN(C2CCC2)CC1` [Example 125, (2R,4S)-1-[2-(4-Cyclobutyl-[1,4]diazepane-1-carbonyl)-4-(3-fluoro-phenoxy)-pyrrolidin-1-yl]-propan-1-one], where the note is “read-out: Human H3 Ki”, the Ki worked out at 0.003 µM.
As to `CCOC(=O)N1C[C@@H](Oc2cccc(F)c2)C[C@@H]1C(=O)N1CCCN(C2CCC2)CC1` [Example 127, (2R,4S)-2-(4-Cyclobutyl-[1,4]diazepane-1-carbonyl)-4-(3-fluoro-phenoxy) pyrrolidine-1-carboxylic acid ethyl ester], the Ki under setting [1] was found to be 0.016 µM.
The compound `CC(=O)N1C[C@H](Oc2cccc(F)c2)C[C@H]1C(=O)N1CCCN(C2CCC2)CC1` [Example 129, (2S,4R)-1-[2-(4-Cyclobutyl-[1,4]diazepane-1-carbonyl)-4-(3-fluoro-phenoxy)-pyrrolidin-1-yl]-ethanone] registered a Ki of 0.379 µM.
Still for that read-out and setting: as for `CC(=O)N1C[C@H](Oc2cccc(F)c2)C[C@@H]1C(=O)N1CCCN(C2CCC2)CC1` [Example 130], the figure is 0.569 µM.
Take `CC(=O)N1C[C@@H](Oc2ccccn2)C[C@@H]1C(=O)N1CCCN(C2CCC2)CC1` [Example 132, (2R,4S)-1-[2-(4-Cyclobutyl-[1,4]diazepane-1-carbonyl)-4-(Pyridin-2-yloxy)-pyrrolidin-1-yl]-ethanone]: under “read-out: Human H3 Ki”, the Ki stood at 0.003 µM.
As to `CC(=O)N1C[C@@H](Oc2cccnc2)C[C@@H]1C(=O)N1CCCN(C2CCC2)CC1` [Example 133, (2R,4S)-1-[2-(4-Cyclobutyl-[1,4]diazepane-1-carbonyl)-4-(Pyridin-3-yloxy)-pyrrolidin-1-yl]-ethanone], the Ki (read-out: Human H3 Ki) was found to be 0.003 µM.
On the same count and under the same terms, the same measure for `CC(=O)N1C[C@@H](Oc2cccs2)C[C@@H]1C(=O)N1CCCN(C2CCC2)CC1` [Example 135, (2R,4S)-1-[2-(4-Cyclobutyl-[1,4]diazepane-1-carbonyl)-4-(thiophen-2-yloxy)-pyrrolidin-1-yl]-ethanone]: 0.003 µM.
Still for that read-out and setting: as for `CC(=O)N1C[C@@H](Oc2ccc3c(c2)OCCO3)C[C@@H]1C(=O)N1CCCN(C2CCC2)CC1` [Example 136, (2R,4S)-1-[2-(4-Cyclobutyl-[1,4]diazepane-1-carbonyl)-4-(2,3-dihydro-benzo[1,4]dioxin-6-yloxy)-pyrrolidin-1-yl]-ethanone], the figure is 0.002 µM.
